In patent US20250353891A1 (MEDIMMUNE LIMITED, priority 2022, published 2025):
Several values for one entry are separate records, joined by “and”; a condition that tells them apart may be missing. Equal entries are not always repeated. Starred links: 1 amine or outer side, 2 acyl side, 3 side chain; linkers in the order of their positions; H or OH if unused. Non-standard residues stand in square brackets, D forms with d. Residues, ends and D or L forms follow the SMILES beside them. Groups on a side chain read outwards from the residue. *: point of attachment. C20 diacid = O=C(O)CCCCCCCCCCCCCCCCCCC(=O)*; C18 diacid = O=C(O)CCCCCCCCCCCCCCCCC(=O)*; γGlu = O=C(O)[C@H](CCC(=O)[*:2])N[*:1]; αMeF = C[C@](N)(Cc1ccccc1)C(=O)O; AEEA = NCCOCCOCC(=O)O; Aib = CC(C)(N)C(=O)O

Key:
[1] = molecular target: human GLP-1 receptor (hGLP-1R) (Homo sapiens, UniProt P43220); assay: cAMP production (HTRF) in CHO cells expressing hGLP-1R; format: cell-based; design: expressed in transfected cells; details: for EC50: Table 6, peptides modified at position 17, cAMP in CHO hGLP-1R cells, geometric mean, read-out: hGLP-1R EC50; for % Relative Potency Ratio: Table 6, % GLP-1R activity relative to GLP-1 / % GlucR activity relative to glucagon
Method in brief: (§1)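 Read-out: HTRF cAMP (anti-cAMP cryptate donor, cAMP-d2 acceptor in conjugate/lysis buffer), converted to % Delta F and fitted by 4-parameter logistic for EC50. Cell densities were 1×10^5 cells/mL (hGLP-1R) or 2×10^5 cells/mL (hGCGR). Stimulation lasted 30 min at room temperature.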

wildtype (WT) mice = assay: Glucose change in wildtype mice; format: in vivo, mouse; details: s.c., 60 min vs 0 min, no somatostatin pretreatment
Method in brief: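 Wildtype mice aged 8-14 weeks, fasted 2 h, sometimes pre-treated with octreotide 10 mg/kg 30 min before peptide injection. Blood glucose by glucometer at -30, 0, 30, 60, 120, 180, 240 and 360 min; n=4-8/group, mice reused up to 3 times with ≥1 week wash-out.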

in vivo [2] = details: 10 nmol/kg; for half-life: iv
From the text: (§2) Selected test peptides (n=8) were profiled for pharmacokinetic (PK) properties in the mouse after single intravenous (i.v.) or subcutaneous (s.c.) dose. A subset (n=4) meeting the acceptance criteria was subsequently profiled in the dog (single i.v. dose) and non-human primate (single i.v. and s.c. dose). […] Low-binding plasticware containers were used during preparation and sample handling to avoid non-specific binding.
After dosing, PK samples were collected from the dorsal metatarsal vein. Blood of each sample was transferred into plastic micro centrifuge tubes containing EDTA-K2, inverted several times for proper mixing of contents and then placed on wet ice. The blood samples were centrifuged at 4° C. to obtain plasma and stored at −75° C. prior to analysis.
(§3) Samples analysis: Samples were analyzed by LC-MS/MS. Calibration standards were injected at the beginning and end of each batch and the determined concentration for each prepared standard was used to construct a calibration curve. Plasma and dose aliquot sample concentrations were determined from the plasma calibration curve.
(§4) Data analysis: Plasma concentration data was analyzed by non-compartmental analysis (NCA) using Phoenix Winnonlin v. 8.3.3.33. Linear trapezoidal rule was used for increasing values and log trapezoidal rule was used for decreasing values, applying uniform weighting for lambda_z calculations. Subcutaneous bioavailability was calculated as the ratio AUC(s.c.)0-inf/AUC(i.v.)0-inf. Reported values (Table 18) represent the mean of the individual estimates.

[3] = molecular target: human glucagon receptor (hGCGR) (Homo sapiens, UniProt P47871); assay: cAMP production (HTRF) in CHO cells expressing hGCGR; format: cell-based; design: expressed in transfected cells; details: Table 6, peptides modified at position 17; cAMP in CHO hGCGR cells; geometric mean; read-out: hGluc-R EC50
Method in brief: as §1

[4] = tested on: GLP-1R knockout (KO) mice; assay: Glucose change in GLP-1R knockout mice; format: in vivo, mouse; details: GLP-1R KO mice, s.c., 60 min vs 0 min, no somatostatin pretreatment
Method in brief: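 GLP-1R knockout mice (n=4-8/group, sorted by body weight) were fasted 2 h, and in some studies pretreated with octreotide 10 mg/kg 30 min before peptide injection. Mice were reused up to 3 times with at least 1-week wash-out.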

[5] = Mouse acute food intake study; format: in vivo; details: male C57Bl/6 mice, s.c., cumulative food intake at 24 hr vs vehicle
Method in brief: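 Single-housed male C57Bl/6 mice (8-9 weeks on arrival), chow-fed, acclimated and sham-dosed ≥2 times, were fasted 6-8 h, then given vehicle or peptide subcutaneously at 5 mL/kg 1-2 h before lights out. Food intake was recorded automatically over 48 h and analysed as cumulative intake.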

in vivo [6] = details: male, Beagle, dog, iv, 10 nmol/kg
From the text: as §2
Blood of each sample was transferred into plastic micro centrifuge tubes containing EDTA-K2, inverted several times for proper mixing of contents and then placed on wet ice.
as §3, §4

in vivo [7] = details: male, cynomolgus monkey, 10 nmol/kg
From the text: as §2
Non-human primate: PK was studied in non-naïve male cynomolgus monkeys. After dosing, PK samples were collected from the femoral vein. Blood of each sample was transferred into plastic micro centrifuge tubes containing EDTA-K2, inverted several times for proper mixing of contents and then placed on wet ice. The blood samples were centrifuged under refrigerated (2° C. to 8° C.) conditions within 30 minutes following sample collection to obtain plasma and stored at −60° C. to −90° C.° C. prior to analysis.
as §3, §4

recombinant Neprilysin = molecular target: T1, recombinant Neprilysin (Homo sapiens, UniProt P08473); assay: Proteolytic resistance to neprilysin; format: in vitro ADME; details: pH 8.3
T1 construct: purchased R&D Systems 1182-ZNC-010
Experimental: 10.0 μg (˜10 units) recombinant Neprilysin (R&D Systems: 1182-ZNC-010) was reconstituted to 100 μL (100 μg/mL, ˜100 units/mL) in assay buffer (50 mM Tris, 50 mM NaCl, 50 mM NaHCO3, adjusted to pH 8.3) to give the enzyme stock solution. Peptide stock solutions were prepared to a concentration of ˜250 μM (˜1.0 mg/mL of 4 kDa peptide) in assay buffer. 100 μL (10 μg, ˜10 units) of neprilysin stock solution was added to 100 μL of peptide stock solution (1.0 mg/mL, ˜100 μg of peptide) and the mixture was co-incubated in a temperature regulated incubator at 37° C. for the duration of the experiment. 25 μL aliquots (˜ 12.5 μg initial peptide) of the peptide-enzyme mixture were periodically withdrawn (t=0, 30 mins, 1 h, 2 h, 4 h and 24 h) and quenched immediately by addition to an equal volume ([…]) of 10% TFA (v/v) in 1:1 water/acetonitrile to arrest proteolytic activity. The quenched aliquot centrifuged at 7800 rpm, and 30 μL of the supernatant was analyzed by analytical RP-HPLC as follows: Analytical RP-HPLC method: Agilent Polaris C8-A column (4.6×100 mm, 3 micron) eluted with a linear binary gradient of 10-90% MeCN (0.1% TFA v/v) in water (0.1% TFA v/v) over either 10 or 15 mins at 1.5 mL min-1 at 40° C. with detection by UV absorption at 210 nm. Manual integration (AUC) allowed estimation of remaining intact peptide over the time course of the experiment.

[8] = Proteolytic resistance to FasSSIF/Pancreatin; format: in vitro ADME; details: simulated intestinal fluid
Method in brief: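 Peptide (1.0 mg) in pre-warmed FasSSIF, proteolysis started with fresh FasSSIF/USP Pancreatin and held at 37 °C. Aliquots at 0, 5, 10, 15, 30 min quenched in 10% TFA; remaining intact peptide estimated by RP-HPLC peak area, UV 210 nm.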

[9] = Proteolytic resistance to FasSSGF containing porcine pancreatic pepsin; format: in vitro ADME; details: pig, simulated gastric fluid
Method in brief: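 Peptide (250 μM stock in FasSSGF) mixed 1:1 with porcine pepsin stock (0.5 mg/mL in FasSSGF) and held at 37° C; samples at 0, 5, 10, 15 and 30 min quenched in ammonium bicarbonate, pH 8. Intact peptide remaining estimated by RP-HPLC peak area, UV 210 nm.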

Chain of human GLP-1 receptor (hGLP-1R) (P43220 24-463): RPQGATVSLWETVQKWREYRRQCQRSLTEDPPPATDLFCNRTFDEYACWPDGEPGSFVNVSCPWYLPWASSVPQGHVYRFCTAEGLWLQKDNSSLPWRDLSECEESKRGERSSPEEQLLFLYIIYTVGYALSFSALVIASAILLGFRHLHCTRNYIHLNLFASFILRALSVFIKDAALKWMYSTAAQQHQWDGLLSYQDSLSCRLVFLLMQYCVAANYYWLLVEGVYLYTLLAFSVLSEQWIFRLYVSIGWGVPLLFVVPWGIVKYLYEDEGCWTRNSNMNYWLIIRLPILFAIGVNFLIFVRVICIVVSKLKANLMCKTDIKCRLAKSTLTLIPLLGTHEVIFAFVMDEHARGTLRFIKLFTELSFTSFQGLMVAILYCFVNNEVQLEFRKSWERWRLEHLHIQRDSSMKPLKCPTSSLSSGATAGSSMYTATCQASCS
T1 sequence (P08473 52-750 limits assumed): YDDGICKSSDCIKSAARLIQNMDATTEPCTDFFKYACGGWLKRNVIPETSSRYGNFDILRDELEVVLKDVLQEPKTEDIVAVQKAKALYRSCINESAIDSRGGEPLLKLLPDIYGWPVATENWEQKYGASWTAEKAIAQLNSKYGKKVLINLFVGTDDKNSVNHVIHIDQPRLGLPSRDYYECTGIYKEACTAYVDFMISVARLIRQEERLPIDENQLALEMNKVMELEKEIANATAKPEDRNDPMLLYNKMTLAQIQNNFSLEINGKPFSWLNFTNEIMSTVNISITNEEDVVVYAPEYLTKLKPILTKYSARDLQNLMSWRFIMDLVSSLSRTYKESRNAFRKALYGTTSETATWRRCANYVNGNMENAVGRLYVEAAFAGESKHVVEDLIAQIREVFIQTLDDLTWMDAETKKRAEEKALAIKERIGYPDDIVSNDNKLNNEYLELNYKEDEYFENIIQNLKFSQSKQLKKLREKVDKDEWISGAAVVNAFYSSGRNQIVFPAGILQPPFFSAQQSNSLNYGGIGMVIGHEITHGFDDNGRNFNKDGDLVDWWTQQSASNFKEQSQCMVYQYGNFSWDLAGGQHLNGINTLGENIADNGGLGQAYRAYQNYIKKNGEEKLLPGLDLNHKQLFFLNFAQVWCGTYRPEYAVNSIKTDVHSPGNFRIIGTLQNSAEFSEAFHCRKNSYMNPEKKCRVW
Chain of human glucagon receptor (hGCGR) (P47871 26-477): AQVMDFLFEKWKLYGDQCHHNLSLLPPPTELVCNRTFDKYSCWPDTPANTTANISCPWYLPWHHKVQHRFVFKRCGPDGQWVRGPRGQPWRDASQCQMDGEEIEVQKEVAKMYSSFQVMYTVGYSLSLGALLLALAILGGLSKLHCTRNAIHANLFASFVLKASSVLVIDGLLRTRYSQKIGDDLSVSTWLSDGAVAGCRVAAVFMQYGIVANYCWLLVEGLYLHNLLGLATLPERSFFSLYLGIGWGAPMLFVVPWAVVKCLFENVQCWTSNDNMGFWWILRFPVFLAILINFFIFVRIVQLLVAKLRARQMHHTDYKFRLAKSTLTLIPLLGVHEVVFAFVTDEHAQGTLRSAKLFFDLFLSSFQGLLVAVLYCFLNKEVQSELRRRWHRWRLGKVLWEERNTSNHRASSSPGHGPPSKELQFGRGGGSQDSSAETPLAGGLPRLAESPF

Compound	EC50 [1]	% Relative Potency Ratio [1]	WT % glucose change 60 min (wildtype (WT) mice; 10 nmol/kg)	WT % glucose change 60 min (wildtype (WT) mice; 30 nmol/kg)	bioavailability (in vivo [2]; male, C57BL/6, mouse)	half-life (in vivo [2]; male, C57BL/6, mouse)	EC50 [3]	GLP-1R KO % glucose change - 60 min ([4]; 10 nmol/kg)	GLP-1R KO % glucose change - 60 min ([4]; 30 nmol/kg)	24 hr % Vehicle Food Intake ([5]; dose 10 nmol/kg)	further results
CC(C)C[C@H](NC(=O)[C@H](Cc1c[nH]c2ccccc12)NC(=O)[C@H](CCCNC(=N)N)NC(=O)[C@@H](NC(=O)[C@H](Cc1ccccc1)NC(=O)[C@H](CC(=O)O)NC(=O)[C@H](CCC(N)=O)NC(=O)[C@H](C)NC(=O)[C@H](CCCNC(=N)N)NC(=O)[C@H](CCCCNC(=O)COCCOCCNC(=O)COCCOCCNC(=O)CC[C@H](NC(=O)CCCCCCCCCCCCCCCCC(=O)O)C(=O)O)NC(=O)[C@@H](NC(=O)[C@H](CC(=O)O)NC(=O)[C@H](CC(C)C)NC(=O)[C@](C)(Cc1ccccc1)NC(=O)[C@H](CCCCN)NC(=O)[C@H](CO)NC(=O)[C@@H](NC(=O)[C@H](CC(=O)O)NC(=O)[C@H](CO)NC(=O)[C@@H](NC(=O)[C@H](Cc1ccccc1)NC(=O)[C@@H](NC(=O)CNC(=O)[C@H](CCC(N)=O)NC(=O)C(C)(C)NC(=O)[C@@H](N)Cc1c[nH]cn1)[C@@H](C)O)[C@@H](C)O)C(C)C)[C@@H](C)O)C(C)C)C(=O)N[C@@H](CC(C)C)C(=O)N[C@@H](CCC(=O)O)C(=O)NC(C)(C)C(=O)NCC(=O)O [Peptide 140] (H-H[Aib]QGTFTSDVSK[αMeF]LDTK([AEEA-AEEA-γGlu-C18 diacid])RAQDFVRWLLE[Aib]G-OH; N-terminus assumed)	0.0227 nM	4.0	−32.1%	−29.0%	102%	6.4 h	0.0464 nM	46.2%	59.8%	65.4%	–
CC(C)C[C@H](NC(=O)[C@H](Cc1c[nH]c2ccccc12)NC(=O)[C@H](CCC(N)=O)NC(=O)[C@@H](NC(=O)[C@H](Cc1ccccc1)NC(=O)[C@H](CC(=O)O)NC(=O)[C@H](CCCNC(=N)N)NC(=O)[C@H](C)NC(=O)[C@H](CCCNC(=N)N)NC(=O)[C@H](CCCCNC(=O)COCCOCCNC(=O)COCCOCCNC(=O)CC[C@H](NC(=O)CCCCCCCCCCCCCCCCC(=O)O)C(=O)O)NC(=O)[C@@H](NC(=O)[C@H](CC(=O)O)NC(=O)[C@H](CC(C)C)NC(=O)[C@](C)(Cc1ccccc1)NC(=O)[C@H](CCCCN)NC(=O)[C@H](CO)NC(=O)[C@@H](NC(=O)[C@H](CC(=O)O)NC(=O)[C@H](CO)NC(=O)[C@@H](NC(=O)[C@H](Cc1ccccc1)NC(=O)[C@@H](NC(=O)CNC(=O)[C@H](CCC(N)=O)NC(=O)C(C)(C)NC(=O)[C@@H](N)Cc1c[nH]cn1)[C@@H](C)O)[C@@H](C)O)C(C)C)[C@@H](C)O)C(C)C)C(=O)N[C@@H](CC(C)C)C(=O)N[C@@H](CCC(=O)O)C(=O)NC(C)(C)C(=O)NCC(=O)O [Peptide 188, H-Aib-Q-G-T-F-T-S-D-V—S-K-αMePhe-L-D-T-K-R-A-R-D-F-V-Q-W-L-L-E-Aib-G-acid]	0.0208 nM	3.3	−23.2%	−31.3%	98%	7.9 h	0.0347 nM	64%	44.6%	60.7% and 49.8%	half-life (in vivo [6]): 71 h; 24 hr % Vehicle Food Intake ([5]; dose 1 nmol/kg): 99.9%; 24 hr % Vehicle Food Intake ([5]; dose 3 nmol/kg): 80.6%; bioavailability (in vivo [7]): 79%; half-life (in vivo [7]; iv): 67 h
CC[C@H](C)[C@H](NC(=O)C(C)(C)NC(=O)[C@H](CCC(N)=O)NC(=O)[C@@H](NC(=O)[C@](C)(Cc1ccccc1)NC(=O)[C@H](CC(=O)O)NC(=O)[C@H](CCCCNC(=O)COCCOCCNC(=O)COCCOCCNC(=O)CC[C@H](NC(=O)CC[C@H](NC(=O)CCCCCCCCCCCCCCCCCCC(=O)O)C(=O)O)C(=O)O)NC(=O)[C@H](C)NC(=O)[C@H](C)NC(=O)[C@H](CCCNC(=N)N)NC(=O)[C@H](CO)NC(=O)[C@H](CC(=O)O)NC(=O)[C@H](CC(C)C)NC(=O)[C@](C)(Cc1ccccc1)NC(=O)[C@H](CCCCN)NC(=O)[C@H](CO)NC(=O)[C@@H](NC(=O)[C@H](CC(=O)O)NC(=O)[C@H](CO)NC(=O)[C@@H](NC(=O)[C@](C)(Cc1ccccc1)NC(=O)[C@H](CO)NC(=O)CNC(=O)[C@H](Cc1c[nH]cn1)NC(=O)C(C)(C)NC(=O)[C@@H](N)Cc1c[nH]cn1)[C@@H](C)O)C(C)C)C(C)C)C(=O)N[C@@H](C)C(=O)N[C@@H](CC(N)=O)C(=O)N[C@H](C(N)=O)[C@@H](C)O [Peptide 229, H-Aib-H-G-S-αMePhe-T-S-D-V—S-K-αMePhe-L-D-S-R-A-A-K (E-(O2Oc)-(O2Oc)-γE-γE-C20diacid) 20-D-αMePhe-V-Q-Aib-I-A-N-T-amide] (H-H[Aib]HGS[αMeF]TSDVSK[αMeF]LDSRAAK([AEEA-AEEA-γGlu-γGlu-C20 diacid])D[αMeF]VQ[Aib]IANT-NH2; N-terminus assumed)	–	–	–	–	–	–	–	–	–	–	remaining at 0.5 h (recombinant Neprilysin; isolated enzyme neprilysin): 100%; remaining at 2 h (recombinant Neprilysin; isolated enzyme neprilysin): 100%; remaining at 4 h (recombinant Neprilysin; isolated enzyme neprilysin): 100%; remaining at 24 h (recombinant Neprilysin; isolated enzyme neprilysin): 100%; % intact peptide over time (recombinant Neprilysin): 100%; remaining at 5 min, 3.3 mg/mL [8]: 60%; remaining at 10 min, 3.3 mg/mL [8]: 46%; remaining at 0.25 h, 3.3 mg/mL [8]: 33%; remaining at 0.5 h, 3.3 mg/mL [8]: 26%; bioavailability (in vivo [2]; mouse): 86%; half-life (in vivo [2]; mouse): 19 h; remaining at 5 min, 125 µM [9]: 100%; remaining at 10 min, 125 µM [9]: 97%; remaining at 0.25 h, 125 µM [9]: 91%; remaining at 0.5 h, 125 µM [9]: 79%
